In US20070003671A1, “Two-part calcium fortified compositions and methods of making the same” (priority 2005, published 2007):

Columns and labels:
Format in all cases: physicochemical
[1] = Calcium salts, physical/chemical attributes in orange juice, 450 mg/100 mL calcium load; conditions: for Brix/Acid Ratio: unfortified juice 18.3
From the text: (§1) The flavor of orange juice, for example, can be characterized by a unique balance of sweetness resulting from the sugar content and tartness resulting from the acid content. A challenge of fortifying orange juice with nutritionally significant amounts of calcium is maintaining the sweet to tart balance. This balance can be expressed analytically as the Brix to acid ratio, as described above. The Brix component of the ratio is the measure of soluble solids in the composition often determined by a refractometer. The acid component can be determined by titration with a base such as sodium hydroxide. The Brix to acid ratio is an analytical representation or measure of the sweet to tart taste balance.
A variety of calcium salts, i.e., calcium components, were evaluated to determine their effects on the Brix-acid ratio. In this evaluation, orange juices fortified with different calcium salts were prepared at 450 mg/100 mL of calcium load.

[2] = Calcium salts, physical/chemical attributes in orange juice, 350 mg/100 mL calcium load; conditions: for Brix/Acid Ratio: unfortified juice 18.3
From the text: as §1
A variety of calcium salts, i.e., calcium components, were again evaluated to determine their effects on the Brix-acid ratio but this time at 350 mg/100 mL calcium load.

[3] = pH of a 20% slurry in water
From the text: Titratable acidity and pH can be used as measures of sour perception in, e.g., beverage applications. It is well known that acidity provides a flavor lift or increased perception of flavor in a beverage.

Compound	Brix (48 Hours) [1]	Calcium - Juice (48 Hours) [1] [mg/100 mL]	Titratable Acidity (%) (48 Hours) [1]	pH (48 Hours) [1]	Brix/Acid Ratio [1]	Brix (48 hrs) [2]	Calcium in Juice (48 hrs) [2] [mg/100 mL]	Titratable Acidity (%) (48 hrs) [2]	pH (48 hrs) [2]	Brix/Acid Ratio [2]	pH of slurry [3]
N[C@@H](CCC(=O)[O-])C(=O)[O-].O.O.O.O.[Ca+2] [calcium L-glutamate tetrahydrate]	13.81	207	0.627	4.47	22.0	13.41	161	0.621	4.42	21.6	
O.O.O=C([O-])[C@H](O)[C@@H](O)C(=O)[O-].[Ca+2] [calcium L-tartrate dihydrate]	12.02	140	0.545	4.23	22.1	11.99	113	0.574	4.17	20.9	
O=C([O-])[O-].[Ca+2] [calcium carbonate]	12.44	200	0.099	5.88	125.7	12.35	158	0.188	5.15	65.7	
O.O.[Ca+2].[Cl-].[Cl-] [calcium chloride dihydrate]	12.70	206	0.620	3.84	20.5	12.54	163	0.618	3.88	20.3	
O=C[O-].O=C[O-].[Ca+2] [calcium formate]	12.59	206	0.620	4.20	20.3	12.45	160	0.620	4.18	20.1	
O.O.O.O=C([O-])/C=C/C(=O)[O-].[Ca+2] [calcium fumarate trihydrate]	12.96	202	0.659	4.01	19.7	13.56	158	0.643	3.99	21.1	
O.O=P([O-])([O-])OCC(O)CO.[Ca+2] (stereo not drawn) [calcium glycerophosphate monohydrate]	12.73	187	0.598	4.50	21.3	12.54	145	0.602	4.42	20.8	
CC(O)C(=O)[O-].CC(O)C(=O)[O-].O.O.O.O.O.[Ca+2] (stereo not drawn) [calcium lactate pentahydrate]	13.01	204	0.657	4.03	19.8	12.80	157	0.670	4.01	19.1	
O=C([O-])CC(O)C(=O)[O-].[Ca+2] (stereo not drawn) [calcium malate]	12.80	213	0.641	4.17	20.0	12.54	166	0.635	4.15	19.7	
O.O=C([O-])CCC(=O)[O-].[Ca+2] [calcium succinate monohydrate]	12.85	206	0.607	4.66	21.2	12.64	161	0.606	4.56	20.9	
O=P([O-])([O-])O.[Ca+2] [dicalcium phosphate anhydrous]	12.04	203	0.674	4.04	17.8	11.97	156	0.677	4.04	17.6	approximately 5.0
O.O.O=P([O-])([O-])O.[Ca+2] [dicalcium phosphate dihydrate]	12.26	181	0.682	4.21	18.0	12.33	141	0.667	4.17	18.5	7.4
O.O=P([O-])(O)O.O=P([O-])(O)O.[Ca+2] [monocalcium phosphate monohydrate]	12.92	207	1.238	3.69	10.4	12.53	164	1.083	3.76	11.6	
O=C([O-])CC(O)(CC(=O)[O-])C(=O)[O-].O=C([O-])CC(O)(CC(=O)[O-])C(=O)[O-].[Ca+2].[Ca+2].[Ca+2] [tri-calcium citrate]	12.08	177	0.630	4.07	19.2	12.37	140	0.640	4.06	19.3	
O=P([O-])([O-])[O-].O=P([O-])([O-])[O-].[Ca+2].[Ca+2].[Ca+2] [tricalcium phosphate (fine), tricalcium phosphate]	12.30	197	0.484	4.51	25.4	12.27	157	0.490	4.49	25.0	
O=P([O-])([O-])[O-].O=P([O-])([O-])[O-].[Ca+2].[Ca+2].[Ca+2] [tricalcium phosphate]	12.40	182	0.561	4.37	22.1	12.39	147	0.530	4.34	23.4	
calcium ascorbate dihydrate	13.99	195	0.648	4.23	21.6	13.41	160	0.618	4.16	21.7	
calcium aspartate	13.42	187	0.610	4.28	22.0	13.11	159	0.617	4.24	21.2	
calcium gluconate monohydrate	13.91	198	0.653	4.00	21.3	13.56	154	0.640	3.99	21.2	
